Toxic doses and inconclusive results are not listed. Cut-off read from the data, not from the text of the source: active = T/C of 150% or more; inactive = T/C below 125%.
Test system: L1210 leukemia ip in BDF1 mice, survival T/C
Test: NCI In Vivo Anticancer Drug Screen. Data for tumor model L1210 Leukemia (intraperitoneal) in B6D2F1 (BDF1) mice
Conditions: endpoint: mean survival time, higher = longer survival
How it was run: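 Transplantable tumor model; survival measured in treated vs vehicle control mice. Value = treated/control.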

[1] = dose: 100.0 mg/kg/injection, schedule: Q01DX009 (ip), vehicle: Klucel (hydroxypropylcellulose) (HPC)
[2] = dose: 200.0 mg/kg/injection, schedule: Q01DX009 (ip), vehicle: Klucel (hydroxypropylcellulose) (HPC)
[3] = dose: 400.0 mg/kg/injection, schedule: Q01DX009 (ip), vehicle: Klucel (hydroxypropylcellulose) (HPC)
[4] = dose: 100.0 mg/kg/injection, schedule: Q04DX003 (ip), vehicle: Klucel (hydroxypropylcellulose) (HPC)
[5] = dose: 200.0 mg/kg/injection, schedule: Q04DX003 (ip), vehicle: Klucel (hydroxypropylcellulose) (HPC)
[6] = dose: 400.0 mg/kg/injection, schedule: Q04DX003 (ip), vehicle: Klucel (hydroxypropylcellulose) (HPC)
[7] = dose: 100.0 mg/kg/injection, schedule: Q01DX001 (ip), vehicle: saline
[8] = dose: 100.0 mg/kg/injection, schedule: Q01DX009 (ip), vehicle: saline with Tween-80
[9] = dose: 200.0 mg/kg/injection, schedule: Q01DX009 (ip), vehicle: saline with Tween-80

Measured: T/C

COc1ccc(OC)c(NC(=O)Nc2cc(OC)c(Cl)cc2OC)c1
inactive: [1] 105 % of control | [2] 94 % of control | [3] 87 % of control

Nc1ccc(NC(=S)Nc2ccccc2)cc1
inactive: [1] 104 % of control | [4] 93 % of control | [2] 101 % of control | [5] 95 % of control | [3] 97 % of control | [6] 92 % of control

CN(C)CC(O)c1ccc2oc3ccccc3c2c1 (centres undefined)
inactive: [7] 90 % of control | dose: 200.0 mg/kg/injection, schedule: Q01DX001 (ip), vehicle: saline 97 % of control

C[N+](C)(C)CCNC(=O)C12CC3CC(CC(C3)C1)C2
inactive: dose: 25.0 mg/kg/injection, schedule: Q04DX002 (ip), vehicle: saline 89 % of control | dose: 50.0 mg/kg/injection, schedule: Q04DX002 (ip), vehicle: saline 94 % of control | dose: 100.0 mg/kg/injection, schedule: Q04DX002 (ip), vehicle: saline 86 % of control

CCOC(=O)NC(C)(C)CC(C)(C)C
inactive: [1] 101 % of control | [4] 108 % of control | [2] 98 % of control | [5] 94 % of control | [3] 103 % of control | [6] 97 % of control

Cc1ccc(CC2NC(=O)NC2=O)cc1 (centres undefined)
inactive: dose: 25.0 mg/kg/injection, schedule: Q01DX009 (ip), vehicle: saline with Tween-80 102 % of control | dose: 50.0 mg/kg/injection, schedule: Q01DX009 (ip), vehicle: saline with Tween-80 96 % of control | [8] 104 % of control | [9] 96 % of control | dose: 400.0 mg/kg/injection, schedule: Q01DX009 (ip), vehicle: saline with Tween-80 94 % of control

CC(=O)NCCCCNS(=O)(=O)c1ccc(C)cc1
inactive: [4] 95 % of control | [5] 95 % of control | [6] 93 % of control

CC1CCCCC12OCCO2 (centres undefined)
inactive: [8] 97 % of control | dose: 100.0 mg/kg/injection, schedule: Q04DX003 (ip), vehicle: saline with Tween-80 101 % of control | [9] 91 % of control | dose: 200.0 mg/kg/injection, schedule: Q04DX003 (ip), vehicle: saline with Tween-80 93 % of control | dose: 400.0 mg/kg/injection, schedule: Q04DX003 (ip), vehicle: saline with Tween-80 97 % of control

Cc1ccccc1-n1c(C)cc(=O)c(C(=O)Cl)c1C
inactive: dose: 25.0 mg/kg/injection, schedule: Q04DX003 (ip), vehicle: Klucel (hydroxypropylcellulose) (HPC) 95 % of control | dose: 50.0 mg/kg/injection, schedule: Q04DX003 (ip), vehicle: Klucel (hydroxypropylcellulose) (HPC) 95 % of control | dose: 75.0 mg/kg/injection, schedule: Q04DX003 (ip), vehicle: Klucel (hydroxypropylcellulose) (HPC) 97 % of control | [4] 103 % of control | [5] 110 % of control

CCCc1ccccc1O
inactive: dose: 100.0 mg/kg/injection, schedule: Q04DX003 (ip), vehicle: alcohol 97 % of control | dose: 200.0 mg/kg/injection, schedule: Q04DX003 (ip), vehicle: alcohol 94 % of control

S=P(N1CCCCC1)(N1CCCCC1)N1CCCCC1
inactive: [1] 100 % of control | [2] 103 % of control | [3] 100 % of control

O=[N+]([O-])c1ccc(/C=N\N=C\c2ccc([N+](=O)[O-])cc2)cc1
inactive: dose: 100.0 mg/kg/injection, schedule: Q01DX001 (ip), vehicle: other 104 % of control | dose: 200.0 mg/kg/injection, schedule: Q01DX001 (ip), vehicle: other 104 % of control | dose: 400.0 mg/kg/injection, schedule: Q01DX001 (ip), vehicle: other 104 % of control

CCN(CC)CCCOC(=O)c1ccc(NC(C)(C)[N+](=O)[O-])cc1
inactive: dose: 25.0 mg/kg/injection, schedule: Q01DX009 (ip), vehicle: saline 98 % of control | dose: 50.0 mg/kg/injection, schedule: Q01DX009 (ip), vehicle: saline 91 % of control | [7] 90 % of control

Reference: PubChem BioAssay AID248 (DTP/NCI, 2004)
